Results taken from patent US7772003B2, “Lipid derivatives of aminoglycosides” (Aventis Pharma S.A., priority 2001, dated 2010).
Entries after “also recorded” stand apart in the source; their conditions may differ.

Key:
[1] = system: HeLa, HEK293 and COS cells; test: In vitro transfection, dose-response (luciferase reporter gene expression); format: cell-based
Procedure: FIG. 2: Dose-response curves of the in vitro transfection activity of the transfecting compound “KanaChol”. The expression of the reporter gene is indicated as a function of the charge ratio of the lipoplexes formed with the plasmid DNA. The HeLa, HEK293 and COS cells were transfected in accordance with the protocol described in Example 3 using lipoplexes prepared by mixing 5 μg of plasmid DNA expressing luciferase with the required amount of lipid. The data are expressed in relative light units (RLU) per mg of cellular proteins.
FIG. 3: Dose-response curves of the in vitro transfection activity of the KanaChol/DOPE (molar ratio 1:1) liposomes. The expression of the reporter gene is indicated as a function of the charge ratio of the lipoplexes formed with the plasmid DNA. The HeLa, HEK293 and COS cells were transfected in accordance with the protocol described in Example 4 using lipoplexes prepared by mixing 5 μg of plasmid DNA expressing luciferase with the required amount of lipid to form lipoplexes characterized by the charge ratio indicated. The data are expressed in relative light units (RLU) per mg of cellular proteins.
(§1) This study was carried out for lipoplexes comprising various amounts of KanaChol: 6.6, 13.2, 33, 66 or 132 nmol of KanaChol per 5 μg of DNA. In order to determine the theoretical mean charge ratio, it was considered that 1 μg of DNA represents 3 nmol of negative charges and that 3 amine groups of kanamycin are protonated at neutral pH during the formation of the lipoplexes and the transfection.
Preparation of the KanaChol/DNA lipoplexes: the KanaChol obtained according to Example 1 was dissolved in a 20 mM Hepes buffer solution (pH 7.4) at a positive charge concentration of 20 mM (considering that 3 amine functions are protonated at neutral pH). The lipoplexes were then prepared in accordance with the protocol described by Vigneron et al. (PNAS, 93, pp. 9682-9686, September. 1996) or by Patel et al. (Biochem. and Biophys. Res. Comm., 281, pp. 536-543, 2001).
Cell culture: HeLa cells (American Type Culture Collection (ATCC) Rockville, Md., USA) derived from a human cervical epithelium carcinoma were cultured in the presence of a medium of the MEM (minimum essential medium) type supplemented with 10% of fetal calf serum and antibiotics. The medium and the additives came from Gibco/BRL Life Technologies (Gaithersburg, Md., USA). The cells were cultured in flasks at 37° C. and at 5% of carbon dioxide in an incubator. […]
A 20 μl aliquot of supernatant of the centrifuged lysate was diluted in 100 μl of lysis buffer, to which 4 μl of 25 mM ATP (Sigma) and 20 μl of 25 mM luciferin (Sigma) were added. The samples were then placed in a Lumet LB9501 luminometer (Berthold, Nashua, N.H.) and the light emission integration value was measured for 10 seconds. […]

[2] = Electrophoretic gel shift studies (mean positive charge); format: physicochemical; conditions: complexed with nucleic acids
Procedure: as §1

[3] = system: various cell lines (16HBE, HepG2); test: In vitro transfection activity spectrum in other, less conventional cell lines (luciferase); format: cell-based; conditions: charge ratios of between 3 and 5; KanaChol alone weaker in particular in 16HBE and HepG2
Procedure: FIG. 6: Expression of luciferase in various cell lines transfected either with the transfecting compound KanaChol or with the KanaChol/DOPE (1:1) liposomes. The various cell lines were transfected in accordance with the protocol described in Example 5 using either KanaChol/DNA lipoplexes or KanaChol/DOPE/DNA lipoplexes (with a positive charge ratio of 3-5) prepared by mixing 5 μg of plasmid DNA expressing luciferase and the required amount of lipid to obtain a positive charge ratio of 3-5. The data are expressed in relative light units (RLU) per mg of cellular proteins.
The in vitro transfection experiments carried out in Examples 4 and 5 were again carried out in a similar way, but with other less conventional cell lines (species and specificity of each cell line are indicated in FIG. 6). The KanaChol/DNA and KanaChol/DOPE/DNA formulations were used at charge ratios of between 3 and 5 (optimum values as defined in Examples 4 and 5).

[4] = system: HeLa cells; test: Cytotoxicity by total extractable cellular proteins in the cell lysate; format: cell-based; conditions: 48 hours post-transfection, high charge ratio
Procedure: FIG. 4: Cytotoxicity of the transfecting compound KanaChol. HeLa cells were transfected in accordance with the protocol described in Example 3 using lipoplexes prepared by mixing 5 μg of plasmid DNA expressing luciferase with the amount of lipid required to form lipoplexes characterized by the charge ratio indicated. At 48 hours post-transfection, the cells were recovered and the toxicity was quantified using the total amount of cellular proteins in the cell lysate as an index of the number of cells, cell death producing a decrease in the extractable proteins. The total cellular proteins in the cell lysate is indicated as a function of the charge ratio of the lipoplexes. The data are expressed as concentration of extractable cellular proteins in the cell lysate (at fixed volume).
FIG. 5: Cytotoxicity of the KanaChol/DOPE (molar ratio 1:1) lipsomes. […] At 48 hours post-transfection, the cells were recovered and the toxicity was quantified using the total amount of cellular proteins in the cell lysate as an index of the number of cells, cell death producing a decrease in the extractable proteins. […] The data are expressed as concentration of extractable cellular proteins in the cell lysate (at fixed volume).
Thus, the cytotoxicity of the KanaChol was also measured at various charge ratios with the DNA. […]

[5] = system: HeLa; NIH 3T3; HEK298; COS; and 16HBE cell lines; test: In vitro transfection activity of NeoChol and NeoChol/DOPE (luciferase); format: cell-based; conditions: various charge ratios (1.3-26 NeoChol/DNA, 0.66-26 NeoChol/DOPE/DNA); 5 cell lines; NeoChol alone weaker particularly in 16HBE
Procedure: (§2) FIG. 8: Transfecting activity in various cell lines (HEK293, NIH3T3, HeLa, COS, 16HBE), which were transfected with the transfecting compound NeoChol. The expression of the reporter gene can be indicated as a function of the various charge ratio of the lipoplexes and plasmid DNA. The various cell lines were transfected according to the protocol as described in Example 8, using NeoChol/DNA lipoplexes, which were prepared by mixing 5 μg of plasmid DNA expressing luciferase. The data can be expressed in relative light units (RLU) per mg of cellular proteins.
as §2, with “FIG. 9: Expression of luciferase” for “FIG. 8: Transfecting activity”, “compound NeoChol/DOPE (1:1).” for “compound NeoChol.”, “gene is” for “gene can be”, “using NeoChol/DOPE/DNA” for “using NeoChol/DNA”, “data are” for “data can be”, “proteins. […]” for “proteins.”

Structure (SMILES) | cell line with highest transfection ([1]; HeLa, HEK293 and COS compared) | expression of the reporter gene luciferase (transfection) ([1]; lipoplexes with 5 μg plasmid DNA expressing luciferase, HeLa, HEK293 and COS cells, data in RLU per mg of cellular proteins) | theoretical mean charge ratio of optimum transfection efficiency ([1]; lipoplexes with 5 μg plasmid DNA, 3 cell lines) | charge ratio at which the transfection efficiency decreases ([1]; very high charge ratios) | mean positive charge [2] | transfection efficiency (luciferase expression) [3] | cytotoxicity (total extractable cellular proteins in the cell lysate) [4] | transfection efficacy (luciferase expression) [5]
CC(C)CCCC(C)C1CCC2C3CC=C4CC(OC(=O)NCC5OC(OC6C(N)CC(N)C(OC7OC(CO)C(O)C(N)C7O)C6O)C(O)C(O)C5O)CCC4(C)C3CCC12C (stereo not drawn) [KanaChol, 3β[6′-kanamycin-carbamoyl]cholesterol] | highest in the COS cell line | high expression levels | approximately 5 | > 7 | 2-3 | less efficient overall | decrease in the total number of extractable cellular proteins | –
CC(C)CCCC(C)C1CCC2C3CC=C4CC(OC(=O)NCCSC[C@H]5O[C@@H](OC6C(O)[C@H](N)CC(N)[C@H]6O[C@H]6CC(CN)[C@@H](O)C(O)C6N)C(O)C5O[C@H]5OC(CN)[C@@H](O)C(O)C5N)CCC4(C)C3CCC12C (some centres unmarked) [NeoChol, (5″-aminoethylsulfanyl) neomycin carbamoyl cholesterol] | – | – | – | – | – | – | – | efficient transfection; also recorded: somewhat less efficient
